We go through 1 compound from ChEMBL document CHEMBL3580649, “Cardamonin induces autophagy and an antiproliferative effect through JNK activation in human colorectal carcinoma HCT116 cells” (2015).

Broadly, the inhibition is the percentage by which the read-out fell short of the control.

For assay [1], the system named is HCT-116. Briefly: Induction of autophagy in human HCT116 cells assessed as increase in LC3-II accumulation at 10 uM upto 20 hrs by Confocal imaging analysis. Format: functional, cell-based.
Assay [2] has as its system HCT-116. Nature of the assay: Induction of autophagy in human HCT116 cells assessed as increase in LC3-II accumulation at 10 uM upto 20 hrs by immunoblot analysis. Format: functional, cell-based.
The target in assay [3] is Mitogen-activated protein kinase 8 (Homo sapiens) (UniProt P45983). Briefly: Activation of JNK1 in human HCT116 cells assessed as phosphorylation at 10 uM after 24 hrs by Western blotting analysis in presence of 30 uM PFT-alpha p53 antagonist. Format: cell-based. To be noted: HCT-116.
Sequence of Mitogen-activated protein kinase 8 (Homo sapiens) (P45983 whole entry): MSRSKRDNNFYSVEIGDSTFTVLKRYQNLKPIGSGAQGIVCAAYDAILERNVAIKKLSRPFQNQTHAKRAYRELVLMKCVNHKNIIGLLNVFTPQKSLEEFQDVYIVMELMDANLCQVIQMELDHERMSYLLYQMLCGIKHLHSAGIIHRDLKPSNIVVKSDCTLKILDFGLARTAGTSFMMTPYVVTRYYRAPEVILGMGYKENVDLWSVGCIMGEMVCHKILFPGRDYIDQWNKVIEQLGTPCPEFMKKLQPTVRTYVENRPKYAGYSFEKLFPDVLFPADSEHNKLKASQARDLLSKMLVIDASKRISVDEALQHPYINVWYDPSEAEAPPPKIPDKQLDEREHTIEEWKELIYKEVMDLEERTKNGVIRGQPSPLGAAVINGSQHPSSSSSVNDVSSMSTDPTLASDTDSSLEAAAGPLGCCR
Assay [4] deals with HCT-116. Briefly: Antiproliferative activity against human HCT116 cells assessed as cell viability at 10 uM after 24 hrs by WST8 assay relative to vehicle treated control. The format is functional. The following applies: HCT-116, 24 h. For orientation: Tetrazolium assays rely on reduction of a dye to a coloured formazan, in cell work by metabolically active cells.
Assay [5] has as its system HCT-116. Nature of the assay: Induction of autophagy in human HCT116 cells assessed as LC3-II accumulation at 10 uM upto 20 hrs by Western blotting analysis in presence of 20 uM SP600125 reversible JNK inhibitor. The format is functional, cell-based. A general note: In western blotting, separated proteins are transferred to a membrane and probed.
The test system of assay [6] is HCT-116. Briefly: Induction of autophagy in human HCT116 cells assessed as autophagic vacuoles at 10 uM after 24 hrs by monodansylcadaverine staining assay. Format: functional, cell-based.
The target of assay [7] is Mitogen-activated protein kinase 8 (Homo sapiens) (UniProt P45983). Briefly: Activation of JNK1 in human HCT116 cells transfected with shRNA against p53 assessed as phosphorylation at 10 uM after 24 hrs by Western blotting analysis. The format is cell-based. To be noted: HCT-116.
For assay [8], the system named is HCT-116. Briefly: Induction of autophagy in human HCT116 cells assessed as increase in LC3-II dots per cell at 10 uM upto 20 hrs by Confocal imaging analysis relative to vehicle treated control (reference value: 0.8/cell). Format: functional.
In assay [9] the test system is HCT-116. Nature of the assay: Induction of cell cycle arrest in human HCT116 cells assessed as cells accumulation at G2/M phase at 10 uM after 24 hrs by propidium iodide staining-based flow cytometry (reference value: 19.2 +/- 0.3%). The format is functional.
Assay [10] concerns HCT-116. Nature of the assay: Induction of autophagy in human HCT116 cells transfected with shRNA against p53 assessed as LC3-II accumulation at 10 uM after 24 hrs by Western blotting analysis. The format is functional, cell-based.
The target in assay [11] is Mitogen-activated protein kinase 8 (Homo sapiens) (UniProt P45983). Nature of the assay: Activation of JNK1 in human HCT116 cells assessed as phosphorylation at 10 uM after 24 hrs by Western blotting analysis. Format: cell-based. The following applies: HCT-116.
The test system of assay [12] is HCT-116. Nature of the assay: Antiproliferative activity against human HCT116 cells at 10 uM upto 20 hrs by CCK8 assay relative to control in presence of 20 uM SP600125 reversible JNK inhibitor. The format is functional, cell-based.
In assay [13] the test system is HCT-116. Nature of the assay: Induction of cell cycle arrest in human HCT116 cells assessed as cells accumulation at S phase at 10 uM after 24 hrs by propidium iodide staining-based flow cytometry (reference value: 48.8 +/- 1.5%). Format: functional. On the technique in general: In flow cytometry, cells or beads pass a laser one at a time.
For assay [14], the target named is Mitogen-activated protein kinase 9 (Homo sapiens) (UniProt P45984). Nature of the assay: Activation of JNK2 in human HCT116 cells assessed as phosphorylation at 10 uM after 24 hrs by Western blotting analysis. The format is cell-based. To be noted: HCT-116.
Sequence of Mitogen-activated protein kinase 9 (Homo sapiens) (P45984 whole entry, looked up): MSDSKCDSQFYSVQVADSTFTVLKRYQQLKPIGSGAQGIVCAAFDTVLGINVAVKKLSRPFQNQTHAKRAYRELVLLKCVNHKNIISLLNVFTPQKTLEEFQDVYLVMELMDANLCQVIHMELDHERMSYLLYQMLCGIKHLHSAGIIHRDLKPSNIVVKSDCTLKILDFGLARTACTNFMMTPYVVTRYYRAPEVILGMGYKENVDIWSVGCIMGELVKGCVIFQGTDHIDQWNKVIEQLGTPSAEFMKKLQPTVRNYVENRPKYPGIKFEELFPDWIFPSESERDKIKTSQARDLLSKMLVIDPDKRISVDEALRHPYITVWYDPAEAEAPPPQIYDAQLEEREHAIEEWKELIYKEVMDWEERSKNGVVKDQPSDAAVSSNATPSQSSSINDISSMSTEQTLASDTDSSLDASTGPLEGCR
Assay [15] has the same target. Nature of the assay: Activation of JNK2 in human HCT116 cells transfected with shRNA against p53 assessed as phosphorylation at 10 uM after 24 hrs by Western blotting analysis. To be noted: HCT-116. Format: cell-based.
Assay [16] has the same target. Briefly: Activation of JNK2 in human HCT116 cells assessed as phosphorylation at 10 uM after 24 hrs by Western blotting analysis in presence of 30 uM PFT-alpha p53 antagonist. The format is cell-based. The following applies: HCT-116.
The test system of assay [17] is HCT-116. Nature of the assay: Antiproliferative activity against human HCT116 cells transfected with shRNA against p53 at 10 uM after 24 hrs by CCK8 assay relative to control. The format is functional, cell-based.
Assay [18] relates to HCT-116. Nature of the assay: Induction of autophagy in human HCT116 cells assessed as autophagic vacuoles at 10 uM after 24 hrs by monodansylcadaverine staining assay in presence of Bafilomycin A1. The format is functional, cell-based.
Assay [19] deals with HCT-116. Nature of the assay: Induction of autophagy in human HCT116 cells assessed as LC3-II accumulation at 10 uM upto 20 hrs by Western blotting analysis in presence of 30 uM PFT-alpha p53 antagonist. The format is functional, cell-based.
Assay [20] relates to HCT-116. Nature of the assay: Induction of cell cycle arrest in human HCT116 cells assessed as cells accumulation at G0/G1 phase at 10 uM after 24 hrs by propidium iodide staining-based flow cytometry (reference value: 31.9 +/- 2.3%). Format: functional.
Assay [21] relates to HCT-116. Nature of the assay: Antiproliferative activity against human HCT116 cells assessed as cell viability after 24 hrs by WST8 assay. Format: functional, cell-based.
The test system of assay [22] is HCT-116. Briefly: Antiproliferative activity against human HCT116 cells transfected with shRNA against p53 at 10 uM after 24 hrs by CCK8 assay in presence of exogenous p53 gene. The format is functional, cell-based.

Active and inactive are the calls of the source. No cut-off for these calls is given here.

Consider `COc1cc(O)cc(O)c1C(=O)/C=C/c1ccccc1` [CARDAMOMIN], for which the result (in the assay with HCT-116 [1]; in the assay with HCT-116 [2]; in the assay with HCT-116 [6]; in [11]; in [14]) was Active. For the same compound, the result (in [3]; in the assay on HCT-116 [5]; in assay [7]; in the assay on HCT-116 [10]; in the assay on HCT-116 [12]; in [15]) was inactive. The outcome (in [16]; with HCT-116 [18]; in the assay on HCT-116 [19]) was inactive. In addition, the inhibition at 10 µM in the assay with HCT-116 [4] amounted to 37%. For the same compound, the Activity is reported as 3.4 with HCT-116 [8], 25% in the assay with HCT-116 [9], 46.6% in the assay with HCT-116 [13] and 28.4% in the assay with HCT-116 [20]. In addition, the inhibition entry with HCT-116 [17] was “inactive”. Further, the inhibition result with HCT-116 [21] is “Dose-dependent effect”. Besides, in the assay with HCT-116 [22], the inhibition entry is “Active”.
